Test results reported in patent US20080305085A1, “Compositions And Methods For Stem Cell Expansion” (priority 2004, published 2008).

Legend:
[1] = test system: Jagged1; experiment: Jagged1 expression by RT-PCR in wild-type bone marrow stroma exposed to OPN ex vivo; assay type: cell-based, mouse; conditions: OPN 1 ug/ml, four hours ex vivo
Text: FIGS. 4A-4F are graphs showing that OPN^−/− bone marrow has unaltered cell cycle profiles associated with increased stromal Jagged1 and Angiopoietin-1 expression and reduced primitive cell apoptosis. FIG. 4A is a graph showing that bone marrow Sca1^+ c-kit^+lin^− cells that show bright staining for Hoechst33342 are cells in the G2/M phase of the cell cycle (n=3 pairs). […] Data are the result of two independent experiments with four mice per group in each experiment. […] Data were normalized to an intrasample GAPDH standard and the results of the OPN^−/− versus OPN^+/+ cells were compared by ratio. […] Data are normalized against GAPDH expression measured by RT PCR. […] AnnexinV-positive/7-AAD-negative apoptotic Sca1^+c-kit^+lin^− cells are shown (n=4 pairs). […] Analyses were performed on the lin^− fraction twelve weeks after transplantation (n=4).
Stem cell expansion may occur without increased proliferation in the context of Notch1 activation where stem cell self renewal is favored over differentiation^23,24. Activation of Notch1 on primitive hematopoietic cells in vivo was previously shown to result in an increase in primitive cells, but reduced progenitor cells similar phenotype to that reported herein^23. […]
The expression of Jagged1, Angiopoietin1 and N-cadherin in bone marrow stroma cells was measured by RT-PCR. […]

[2] = test system: lin− primitive hematopoietic cells; experiment: Apoptosis by AnnexinV / 7-AAD flow cytometry of cells cultured with OPN; assay type: cell-based, mouse; conditions: cultured with OPN 1 μg/ml versus without OPN
Experimental: (§1) FIGS. 5A-5C are graphs showing that soluble OPN induces apoptosis of primitive hematopoietic cells. Sca1^+lin^− cells were isolated from the bone marrow of C57B1/6 mice and cultured in IMDM containing 10% fetal calf serum (FCS), stem cell factor (SCF), Flt-3, thrombopoietin (TPO) and IL-3 with or without OPN [1 μg/ml]. After 7 days the cells were counted and analyzed in functional hematopoietic assays.
The fraction of apoptotic cells was next analyzed by staining with lineage markers, 7-AAD and AnnexinV. […] OPN exerted a pro-apoptotic effect on primitive cells potentially constraining the size of the stem cell pool.
Flow cytometry was used to quantify the hematopoietic cells at different stages in the peripheral blood and the bone marrow of the transplanted animals. […] To quantify the enriched stem cell phenotype (Sca1^+lin^−) in primary animals and in transplanted animals bone marrow cells were stained with biotinylated lineage antibodies (CD3, Ter119 (Pharmingen, San Diego, Calif.), CD4, CD8, B220, IgM, Gr-1 and Mac1 (Caltag, Burlingame, Calif.)), c-kit-APC (Pharmingen, San Diego, Calif.) and Sca1-PE (Caltag, Burlingame, Calif.). The cells were analyzed after labeling with the secondary antibody Streptavidin-PerCP (Becton Dickinson, Franklin Lakes, N.J.). […]

[3] = test system: Sca1+lin− bone marrow cells; experiment: Limiting dilution LTC-IC assay after 7 day culture with OPN; assay type: cell-based, mouse; conditions: after 7 days culture with OPN 1 μg/ml; without OPN 35.9±5.14; P=0.002, n=5
Experimental: as §1
Exogenous OPN was used to assess its potential role in regulating primitive cells directly rather than through the altered expression of other regulators within the niche. Initial experiments cultured Sca1^+lin^− bone marrow cells of C57B1/6 mice in medium containing stem cell factor (SCF), Flt-3, thrombopoietin (TPO), and IL-3 with and without OPN for 7 days. The cells were subsequently counted and analyzed in functional in vitro progenitor and stem cell assays. […]
To quantify the stem cells in the bone marrow and spleen cell suspension, the CAFC assay^36 was adapted with minor modifications as described in our previous publication^37. To measure long term culture-initiating cells (LTC-IC) the semisolid, cytokine containing methylcellulose medium for CFC was overlaid into the wells at week 5 and the colonies were counted at day ten. […]

[4] = test system: Sca1+lin− bone marrow cells; experiment: Colony-forming cell (CFC) assay after 7 day culture with OPN; assay type: cell-based, mouse; conditions: after 7 days culture with OPN 1 μg/ml versus without OPN, n=5
Experimental: as §1
(§2) Exogenous OPN was used to assess its potential role in regulating primitive cells directly rather than through the altered expression of other regulators within the niche. Initial experiments cultured Sca1^+lin^− bone marrow cells of C57B1/6 mice in medium containing stem cell factor (SCF), Flt-3, thrombopoietin (TPO), and IL-3 with and without OPN for 7 days. The cells were subsequently counted and analyzed in functional in vitro progenitor and stem cell assays. Addition of soluble OPN led to a lower total cell number with an unperturbed absolute number of CFCs representing hematopoietic progenitor cell activity (n=5) (FIG. 5A).
(§3) Mouse bone marrow was obtained from 8-12 week old 129/C57BL/6 OPN^+/+ and 129/C57BL/6 OPN^−/− mice, sacrificed with CO2. Bone marrow cell and spleen cell suspensions were flushed from femurs and tibias or take from spleen, filtered through 100 μm-mesh nylon cloth (Sefar America Inc., Kansas City, Mo.), and stored on ice until use. […]

[5] = test system: Sca1+lin− bone marrow cells; experiment: Culture of Sca1+lin− bone marrow cells with or without soluble OPN for 7 days, cells counted; assay type: cell-based, mouse; conditions: Sca1+lin− cells of C57B1/6 mice, 7 days in SCF, Flt-3, TPO, IL-3, OPN 1 μg/ml, versus without OPN
Experimental: as §1, §2, §3

[6] = test system: Sca1+c-kit+lin− cells; experiment: In vivo PTH treatment, Sca1+c-kit+lin− cells in bone marrow by flow cytometry; set-up: species or system mouse; conditions: for magnitude of Sca1+c-kit+lin− increase induced by PTH, absolute number / magnitude of Sca1+c-kit+lin− increase induced by PTH, proportion: four weeks of PTH
Experimental: FIG. 6 is a graph showing that OPN deficiency permits increased primitive hematopoietic cell compartment expansion after niche activation by parathyroid hormone (PTH): OPN^+/+ and OPN^−/− mice were treated with PTH by daily injection for 4 weeks. The bone marrow was analyzed by flow cytometry.
Parathyroid hormone is capable of activating niche osteoblasts and expanding the number of stem cells in vitro and in vivo in a Notch mediated manner. […] Stimulation with PTH increases OPN production leading to the hypothesis that the degree of stem cell expansion possible by PTH niche activation may be restricted by OPN. Using the OPN null or wild type mouse, the number of primitive cells was assessed following four weeks of PTH stimulation. A difference in the number of Sca1^+c-kit^+lin^− was noted between the OPN null and wild type mouse prior to PTH (FIG. 6). With PTH treatment, there was an increase in the Sca1^+c-kit^+lin^− cells in each genotypic background.
6-8 week old wild-type or null male mice were injected with rat PTH (1-34) (Bachem, Torrance, Calif.) (80 μg/Kg of body weight) or vehicle alone intraperitoneally 5×/week for 4 weeks (n=4-6/group). Animals were sacrificed and bone marrow cell isolated and analyzed as above.
Flow cytometry was used to quantify the hematopoietic cells at different stages in the peripheral blood and the bone marrow of the transplanted animals. Bone marrow nucleated cells were labeled with the leukocyte antibodies Ly5.1-PE and Ly5.2-biotin (Pharmingen, San Diego, Calif.), lineage antibodies (CD3-PerCP, CD4-PE, B220-PE, Ter119-PE, (Pharmingen, San Diego, Calif.), CD8-Tri, Gr-1-Tri, Mac1-PE (Caltag)), and stem cell markers (Sca1-Tri and PE, c-kit-Tri (Caltag, Burlingame, Calif.)). To quantify the enriched stem cell phenotype (Sca1^+lin^−) in primary animals and in transplanted animals bone marrow cells were stained with biotinylated lineage antibodies (CD3, Ter119 (Pharmingen, San Diego, Calif.), CD4, CD8, B220, IgM, Gr-1 and Mac1 (Caltag, Burlingame, Calif.)), c-kit-APC (Pharmingen, San Diego, Calif.) and Sca1-PE (Caltag, Burlingame, Calif.). The cells were analyzed after labeling with the secondary antibody Streptavidin-PerCP (Becton Dickinson, Franklin Lakes, N.J.). For cell cycle analyses bone marrow cells were incubated with stem cell markers and the DNA dye Hoechst33342. The proportion of apoptotic cells were measured by staining with AnnexinV (Caltag, Burlingame, Calif.) and the DNA-dye 7-AAD (Sigma, St. Louis, Mo.).

Row | Substance | Jagged1 expression (RT-PCR, normalized to GAPDH) [1] | percentage of AnnexinV+7-AAD− cells in the lin− cell population [2] | absolute number of LTC-ICs [3] [LTC-ICs/well] | absolute number of CFCs [4] | total cell number [5] | Sca1+c-kit+lin− cells after PTH treatment ([6]; OPN null and wild type mice, 80 μg/Kg i.p. 5×/week for 4 weeks) | magnitude of Sca1+c-kit+lin− increase induced by PTH, absolute number ([6]; OPN null mice) | magnitude of Sca1+c-kit+lin− increase induced by PTH, proportion ([6]; OPN null mice) [%] | magnitude of Sca1+c-kit+lin− increase induced by PTH, absolute number ([6]; wild type mice) | magnitude of Sca1+c-kit+lin− increase induced by PTH, proportion ([6]; wild type mice) [%]
1 | OPN: Osteopontin, a secreted, highly acidic glycoprotein; OPN protein was obtained from R&D Systems | statistically significantly reduced | higher percentage | 16.41±4.5 | unperturbed | lower | – | – | – | – | –
2 | PTH: rat PTH (1-34) (Bachem), parathyroid hormone used to activate niche osteoblasts (AVSEIQLMHNLGKHLASVERMQWLRKKLQDVHNF; Parathyroid hormone; UniProt P04089 32-65, looked up, fragment) | – | – | – | – | – | increase | 5.94×10^4 stem cells per femur pair | 10.0 | 3.82×10^4 stem cells per femur pair | 7.5
